For data set [1], the system named is T. cruzi trypomastigotes (Y strain). In words: Activity against T. cruzi trypomastigotes (MTT viability assay). In kind it is cell-based, Trypanosoma cruzi. The following applies: for IC50: Trypanosoma cruzi, free trypomastigotes, read-out: IC50 T. cruzi trypomastigote; for IC50 / antitrypanosomal activity against T. cruzi trypomastigotes (in words): MTT; for antitrypanosomal activity against T. cruzi trypomastigotes (in words): in vitro; for SI (selectivity index): CC50 NCTC cells/IC50 trypomastigotes. The procedure: T. cruzi trypomastigotes (Y strain) were maintained in LLC-MK2 (ATCC CCL 7) cells using RPMI-1640 medium supplemented with 2% FBS at 37 °C and 5% CO2-humidified incubator [34].
Free trypomastigotes obtained from LLC-MK2 cultures were counted in a Neubauer hemocytometer and seeded at 1 × 10^6/well in 96-well microplates. Tested compounds were incubated to the highest concentration of 300 μg/mL for 24 h at 37 °C in a 5% CO2 humidified incubator; using benznidazole as standard drug. The viability of the trypomastigotes was verified by the MTT assay as previously described.
The data obtained represent the mean and standard deviation of duplicate samples from three independent assays. The IC50 and CC50 values were calculated using sigmoid dose-response curves in Graph Pad Prism 5.0 software (GraphPad Software, San Diego, CA, USA), and the 95% confidence intervals are included in parentheses.
(In general: Tetrazolium assays rely on reduction of a dye to a coloured formazan, in cell work by metabolically active cells.)

Data set [2] can be described thus: Cytotoxicity against mammalian cells (MTT assay). The following applies: mouse, NCTC clone 929 cells. In kind it is cell-based. The procedure: The 50% cytotoxic concentration (CC50) was determined in NCTC clone 929 cells. NCTC cells were seeded at 6 × 10^4 cells/well in 96-well microplates at 37 °C in a 5% CO2. […] The viability of the cells was determined by MTT assay at 570 nm. The Selectivity Index (SI) was determined considering the following equation: CC50 NCTC cells/IC50 trypomastigotes. […] The data obtained represent the mean and standard deviation of duplicate samples from three independent assays. The IC50 and CC50 values were calculated using sigmoid dose-response curves in Graph Pad Prism 5.0 software (GraphPad Software, San Diego, CA, USA), and the 95% confidence intervals are included in parentheses.

The mark [3] stands for this setting: 24 h, 24 h, highest concentration 300 µg/mL, CI95% in parentheses.
Setting [4] is: highest concentration 100 µg/mL, CI95% in parentheses.

Read-outs that look alike come from different tables or passages of the source.

The text below walks through data of PMC6272797, “Antitrypanosomal Acetylene Fatty Acid Derivatives from the Seeds of Porcelia macrocarpa (Annonaceae)” (Molecules, 2015).

The IC50 is the concentration that gives 50% inhibition. Usually CC50 stands for the concentration giving 50% cytotoxicity.

Consider `CCCC#CC#CCCCCCCCCCCC(=O)OCC(O)COC(=O)CCCCCCC/C=C\CCCCCCCC` (stereo not drawn) [Compound 3, α-macrocarpoyl-α'-oleylglycerol], for which the IC50 in data set [1] (setting [3]) was more than 300 µg/mL. In data set [1], the “antitrypanosomal activity against T. cruzi trypomastigotes (in words)” value (“antitrypanosomal activity” for short) is “inactive”.
As for `CCCC#CC#CCCCCCCCCCCC(=O)OCC(COC(=O)CCCCCCCCCCC#CC#CCCC)OC(=O)CCCCCCC/C=C\CCCCCCCC` [Compound 2, α,α'-dimacrocarpoyl-β-oleylglycerol], in data set [1] (setting [3]), the IC50 is more than 300 µg/mL. Also, in data set [1], the “antitrypanosomal activity” value is “inactive”.
For the molecule `CCCC#CC#CCCCCCCCCCCC(=O)O` [Compound 1, 12,14-octadecadiynoic acid], the half-maximal cytotoxic concentration (CC50) at 48 h in data set [2] came out at 160 µM; in data set [2] (setting [4]), 44.3 µg/mL. Also, the “SI (selectivity index)” value in data set [1] was found to be 4.1. For the same molecule, the half-maximal inhibitory concentration (IC50) turned out to be 10.7 µg/mL in data set [1] (setting [3]) and 38.8 µM in data set [1] (24 h, 24 h). Moreover, the “trypomastigote forms of T. cruzi killed” value in data set [1] (at the highest tested concentration (300 µg/mL), 24 h) was 100%. Further, in data set [1] (comparison of IC50 against trypomastigotes), the “effectiveness relative to the standard drug benznidazole” value is on record as “approximately ten times more effective”. Moreover, the “antitrypanosomal activity” value in data set [1] is “displayed in vitro activity”.
With `O=C(Cn1ccnc1[N+](=O)[O-])NCc1ccccc1` [Benznidazole, benznidazole, reference compound], the cytotoxic concentration (CC50) at 48 h stood at 484 µM in data set [2] and 126 µg/mL in data set [2] (setting [4]). For the same molecule, the “SI (selectivity index)” value in data set [1] is listed as 0.9. The IC50 turned out to be 139 µg/mL in data set [1] (setting [3]) and 534 µM in data set [1] (24 h, 24 h).
For `CCCCCCCCCCCCCCCCCC(=O)O` [Compound 1a, octadecanoic acid], the IC50 in data set [1] (setting [3]) is more than 300 µg/mL.
